Test results as given in PubChem BioAssay AID1259407 (Chemical Carcinogenesis Research Information System (CCRIS), 2018).
Active and inactive are the calls of the source. The rule behind the calls is not given here.

Tested on: CCRIS mutagenicity, Ames/micronucleus/aberration tests
Experiment: CCRIS mutagenicity studies

## O=[N+]([O-])c1cc([N+](=O)[O-])c2ccc3cccc4ccc1c2c43
End Point: IN VITRO CHROMOSOMAL ABERRATIONS, Test System: CHINESE HAMSTER LUNG (CHL) CELLS, Metabolic Activation: NONE
  mutagenic call: active; positive
End Point: IN VITRO CHROMOSOMAL ABERRATIONS, Test System: CHINESE HAMSTER LUNG (CHL) CELLS, Metabolic Activation: RAT, LIVER, S-9, KC-400
  mutagenic call: active; positive
Test System: AMES SALMONELLA TYPHIMURIUM, Strain/Indicator: TA98 (1,8-DNP6), Metabolic Activation: NONE, Method: STANDARD PLATE
  mutagenic call: active; positive
Test System: AMES SALMONELLA TYPHIMURIUM, Strain/Indicator: TA98 (NR), Metabolic Activation: NONE, Method: STANDARD PLATE
  mutagenic call: active; positive
Test System: AMES SALMONELLA TYPHIMURIUM, Strain/Indicator: TA98, Metabolic Activation: NONE, Method: PREINCUBATION
  mutagenic call: active; positive
Test System: AMES SALMONELLA TYPHIMURIUM, Strain/Indicator: TA98, Metabolic Activation: NONE, Method: STANDARD PLATE
  mutagenic call: active; positive
Test System: AMES SALMONELLA TYPHIMURIUM, Strain/Indicator: TA98, Metabolic Activation: RAT, LIVER, S-9, PCB (10%), Method: PREINCUBATION
  mutagenic call: inactive; negative
Test System: AMES SALMONELLA TYPHIMURIUM, Strain/Indicator: TA100, Metabolic Activation: NONE, Method: STANDARD PLATE
  mutagenic call: active; positive
Test System: AMES SALMONELLA TYPHIMURIUM, Strain/Indicator: TA100, Metabolic Activation: RAT, LIVER, CYTOSOL, AROCLOR 1254, Method: STANDARD PLATE
  mutagenic call: active; positive
Test System: AMES SALMONELLA TYPHIMURIUM, Strain/Indicator: TA100, Metabolic Activation: RAT, LIVER, CYTOSOL, Method: STANDARD PLATE
  mutagenic call: active; positive
Test System: AMES SALMONELLA TYPHIMURIUM, Strain/Indicator: TA100, Metabolic Activation: RAT, LIVER, MICROSOMES, AROCLOR 1254, Method: STANDARD PLATE
  mutagenic call: active; positive
Test System: AMES SALMONELLA TYPHIMURIUM, Strain/Indicator: TA100, Metabolic Activation: RAT, LIVER, MICROSOMES, Method: STANDARD PLATE
  mutagenic call: active; positive
Test System: AMES SALMONELLA TYPHIMURIUM, Strain/Indicator: TA100, Metabolic Activation: RAT, LIVER, S-9, AROCLOR 1254, Method: STANDARD PLATE
  mutagenic call: inactive; negative
Test System: AMES SALMONELLA TYPHIMURIUM, Strain/Indicator: TA100, Metabolic Activation: RAT, LIVER, S-9, Method: STANDARD PLATE
  mutagenic call: active; positive
Test System: AMES SALMONELLA TYPHIMURIUM, Strain/Indicator: TA7001, Metabolic Activation: NONE, Method: PREINCUBATION
  mutagenic call: active; positive
Test System: AMES SALMONELLA TYPHIMURIUM, Strain/Indicator: TA7002, Metabolic Activation: NONE, Method: PREINCUBATION
  mutagenic call: active; positive
Test System: AMES SALMONELLA TYPHIMURIUM, Strain/Indicator: TA7003, Metabolic Activation: NONE, Method: PREINCUBATION
  mutagenic call: active; positive
Test System: AMES SALMONELLA TYPHIMURIUM, Strain/Indicator: TA7004, Metabolic Activation: NONE, Method: PREINCUBATION
  mutagenic call: active; positive
Test System: AMES SALMONELLA TYPHIMURIUM, Strain/Indicator: TA7005, Metabolic Activation: NONE, Method: PREINCUBATION
  mutagenic call: active; positive
Test System: AMES SALMONELLA TYPHIMURIUM, Strain/Indicator: TA7006, Metabolic Activation: NONE, Method: PREINCUBATION
  mutagenic call: active; positive
Test System: UDS HUMAN HEPATOMA CELLS, Strain/Indicator: HEPG2/THY INCORP, Metabolic Activation: NONE
  mutagenic call: inactive; negative
